The results in this text go back to publication PMC8929047, “Synthetic Oligopeptides Mimicking γ-Core Regions of Cysteine-Rich Peptides of Solanum lycopersicum Possess Antimicrobial Activity against Human and Plant Pathogens” (Current Issues in Molecular Biology, 2021).

For assay [1], the system named is Botrytis cinerea VKM F-4549. It counts as cell-based. The settings on record: peptide 300 μM, relative to control. The protocol:
(§1) To study the effect of peptides on spore germination and growth of plant pathogenic fungi, fungal strains from the VKM collection were used: Fusarium culmorum VKM F-2303, F. oxysporum VKM F-137, F. solani VKM F-142, F. verticillioides VKM F-670, Bipolaris sorokiniana VKM F-4006, and Botrytis cinerea VKM F-4549. The fungi were grown on potato dextrose agar at 25 °C for 7–8 days, or for B. sorokiniana and B. cinerea, for 10–12 days. Spores were washed off from the surface of the mycelia with sterile distilled water and filtered through a sterile filter. The filtrate was centrifuged at 6000 rpm for 15 min. The precipitate was washed three times with sterile distilled water, transferred to Eppendorf tubes, and centrifuged at 10,000 rpm for 2 min. 1 mL of sterile aqueous 20% glycerol solution was added to the spores, and the tubes with spores were stored in a freezer at −20 °C.
(§2) Similar to antimicrobial assays with yeasts and bacteria, the effect of peptides on spore germination and fungal growth was studied by measuring the absorbance of the spore suspension in the presence of the peptide in microtiter plates. The wells of a plate were filled with 90 µL of spore suspension in half-strength potato dextrose broth at a concentration of 2000–3000 spores in 100 µL and 10 µL of aqueous solutions of peptides at final concentrations of 10–300 µM. The concentration of spores in the suspension was determined in the Goryaev chamber. The absorbance was recorded at 595 nm on a FilterMax F5 Multi-Mode Microplate Reader (Molecular Devices, San Jose, CA, USA) after 38 h of incubation, for B. sorokiniana and B. cinerea, after 14, 19, 24, 38, 43, 62 h.
(§3) Antimicrobial activity was expressed in IC50 values, which denote the concentration required for 50% inhibition of the pathogen growth; this was determined from a graph showing the dependence of antimicrobial activity on peptide concentration.
(§4) For each pathogen, experiments on the evaluation of antimicrobial activity of the synthetic peptides were performed with three replicates per treatment. Mean values, standard deviations (SD), and the significance of differences (p ≤ 0.05) of the means between treatments and controls (t-test for independent variables) were determined using STATISTICA v. 6.1 software (StatSoft Inc., Tulsa, OK, USA).

Assay [2] relates to Pectobacterium carotovorum subsp. carotovorum VKM B-1247. In words: Growth inhibition of bacteria in microtiter plates (absorbance). It counts as cell-based. To be noted: peptide 300 μM, 24 h, relative to control. Here is the method: The antimicrobial activity of synthetic peptides was tested against the yeasts Cryptococcus neoformans VKM Y-2755 and Candida albicans VKM Y-2994, as well as against the bacteria Pectobacterium carotovorum subsp. carotovorum VKM B-1247, Pseudomonas savastanoi pv. savastanoi VKM B-1546 and Clavibacter michiganensis subsp. michiganensis VKM Ac-1403. All cultures were obtained from the All-Russian Collection of Microorganisms (VKM). Yeasts were grown on YPD-P medium containing (g/L): glucose–10, peptone–5 and yeast extract–4. […] The optical density of the cultures was measured on a UNICO 1201 (Unico, Dayton, NJ, USA) spectrophotometer at 594 nm. […] 10 µL of the tested peptide solution (final concentrations of 10–300 µM) in water, 80 µL of the medium and 10 µL of the microbial suspension were mixed in a well of the microtiter plate and incubated at 30 °C for 24 h; after that, the absorbance of the suspension was measured on an Efos 9305 spectrophotometer (Sapphire, Moscow, Russia) at 594 nm. […]
(§5) For each pathogen, experiments on the evaluation of antimicrobial activity of the synthetic peptides were performed with three replicates per treatment. Mean values, standard deviations (SD), and the significance of differences (p ≤ 0.05) of the means between treatments and controls (t-test for independent variables) were determined using STATISTICA v. […]

In assay [3] the test system is Cryptococcus neoformans VKM Y-2755. To be noted: for IC50: Cryptococcus neoformans, 24 h incubation, 30 °C, absorbance 594 nm, max tested 100 μM, mean ± SD, three replicates. The protocol:
(§6) The antimicrobial activity of synthetic peptides was tested against the yeasts Cryptococcus neoformans VKM Y-2755 and Candida albicans VKM Y-2994, as well as against the bacteria Pectobacterium carotovorum subsp. carotovorum VKM B-1247, Pseudomonas savastanoi pv. savastanoi VKM B-1546 and Clavibacter michiganensis subsp. michiganensis VKM Ac-1403. All cultures were obtained from the All-Russian Collection of Microorganisms (VKM). Yeasts were grown on YPD-P medium containing (g/L): glucose–10, peptone–5 and yeast extract–4. Bacterial cultures were grown on medium containing (g/L): yeast extract–1, soya extract–30, aminopeptides (a solution of low-molecular weight peptides and all essential amino acids obtained from the blood of cattle by enzymatic hydrolysis)–60, tryptone–5 and pH 7.2. The microbial cultures were grown on a shaker at 30 °C for 24 h. The optical density of the cultures was measured on a UNICO 1201 (Unico, Dayton, NJ, USA) spectrophotometer at 594 nm. Yeast cultures were diluted 1:10 with water before analysis. […] The antibiotic activity of peptides against yeasts and bacteria was assayed in immunoassay microtiter plates. 10 µL of the tested peptide solution (final concentrations of 10–300 µM) in water, 80 µL of the medium and 10 µL of the microbial suspension were mixed in a well of the microtiter plate and incubated at 30 °C for 24 h; after that, the absorbance of the suspension was measured on an Efos 9305 spectrophotometer (Sapphire, Moscow, Russia) at 594 nm.
as §3
For each pathogen, experiments on the evaluation of antimicrobial activity of the synthetic peptides were performed with three replicates per treatment. Mean values, standard deviations (SD), and the significance of differences (p ≤ 0.05) of the means between treatments and controls (t-test for independent variables) were determined using […] v. 6.1 software (StatSoft Inc., Tulsa, OK, USA).

Assay [4] deals with Clavibacter michiganensis subsp. michiganensis VKM Ac-1403. It counts as cell-based. To be noted: Clavibacter michiganensis; 24 h incubation, 30 °C, absorbance 594 nm; max tested 100 μM; mean ± SD, three replicates. Here is the method:
as §6, §3, §4

Assay [5] deals with Fusarium culmorum VKM F-2303. Put plainly: Spore germination and fungal growth inhibition (absorbance). Format: cell-based. The settings on record: for IC50: Fusarium culmorum, 38 h incubation, absorbance 595 nm, max tested 150 μM, mean ± SD, three replicates. The protocol:
as §1, §2, §3, §4

In assay [6] the test system is Bipolaris sorokiniana VKM F-4006. The assay is described as above. It counts as cell-based. The settings on record: peptide 300 μM, relative to control. The protocol: as §1, §2, §3, §4
The next assay deals with Fusarium species. Put plainly: Spore germination and fungal growth inhibition, statement for all tested Fusarium species. Format: cell-based. The settings on record: peptide 300 μM, relative to control. Here is the method:
as §1
as §2, with “h. […]” for “h.”
as §5

The next assay relates to F. oxysporum VKM F-137. Format: cell-based. To be noted: Fusarium oxysporum; 38 h incubation, absorbance 595 nm; max tested 150 μM; mean ± SD, three replicates. The protocol:
as §1, §2, §3, §4

Assay [7] relates to F. verticillioides VKM F-670. It counts as cell-based, Fusarium verticillioides. The settings on record: Fusarium verticillioides; 38 h incubation, absorbance 595 nm; max tested 180 μM; mean ± SD, three replicates. Here is the method:
as §1
as §2, with “h. […]” for “h.”
as §5

Another assay relates to F. solani VKM F-142. It counts as cell-based, Fusarium solani. Here is the method: as §1
as §2, with “h. […]” for “h.”
as §5

Peptide text beside a SMILES is read from it.

Usually IC50 stands for the concentration that gives 50% inhibition. Higher therefore signals a need for much substance. Consider `C[C@@H](O)[C@H](NC(=O)[C@H](CS)NC(=O)[C@H](Cc1ccccc1)NC(=O)[C@H](CS)NC(=O)[C@H](CCCNC(=N)N)NC(=O)[C@H](CCCNC(=N)N)NC(=O)[C@H](CCCNC(=N)N)NC(=O)[C@H](Cc1ccccc1)NC(=O)CNC(=O)[C@H](CCCNC(=N)N)NC(=O)[C@H](CS)NC(=O)[C@H](CC(=O)O)NC(=O)CNC(=O)CNC(=O)[C@H](CO)NC(=O)[C@@H](N)Cc1ccccc1)C(=O)N[C@@H](CCCNC(=N)N)C(=O)O` [γ58-74SlDEFL2] (H-FSGGDCRGFRRRCFCTR-OH), for which the “Inhibition of B. cinerea growth” value in [1] is 31–45%. In addition, the “Inhibition of P. carotovorum growth” value in assay [2] came to 48%. The figures for the IC50 in assay [3], in assay [4] and in [5] were 11.5 ± 2.5 µM, 19.8 ± 2.5 µM and 44.8 ± 4 µM, respectively. The “Inhibition of C. neoformans growth” value in assay [3] (peptide 300 μM, 24 h, relative to control) turned out to be 90%.

For “SGCCTQLSTVVDEKSEC [γ53-69SlLTPg2.5, synthetic 17-residue peptide corresponding to the γ-core region of tomato nsLTP SlLTPg2.5]”, the “Inhibition of B. cinerea growth” value in assay [1] was “inactive”. In assay [6], the “Inhibition of B. sorokiniana growth” value is “inactive”. Moreover, in the assay on Fusarium species, the “Suppression of Fusarium species” value was “inactive”.

For `CC(C)C[C@H](NC(=O)[C@H](CC(N)=O)NC(=O)[C@H](CCC(N)=O)NC(=O)[C@H](CCCNC(=N)N)NC(=O)[C@H](CO)NC(=O)[C@H](CO)NC(=O)[C@H](CCCCN)NC(=O)[C@H](CO)NC(=O)[C@H](CS)NC(=O)[C@H](CCCNC(=N)N)NC(=O)[C@@H](NC(=O)[C@H](CCCCN)NC(=O)[C@H](CS)NC(=O)[C@H](CO)NC(=O)CN)[C@@H](C)O)C(=O)N[C@@H](CS)C(=O)N[C@@H](CC(N)=O)C(=O)N[C@@H](CCCNC(=N)N)C(=O)O` [γ47-64SlSN10] (H-GSCKTRCSKSSRQNLCNR-OH), the IC50 with F. oxysporum VKM F-137 was determined as 43.8 ± 6.8 µM; in assay [5], 127 ± 8.5 µM.

On to `CC(C)C[C@H](NC(=O)[C@H](CCCNC(=N)N)NC(=O)[C@H](CS)NC(=O)[C@H](CCCNC(=N)N)NC(=O)[C@H](C)NC(=O)[C@H](C)NC(=O)[C@H](CS)NC(=O)[C@H](C)NC(=O)CN)C(=O)N[C@@H](CO)C(=O)N[C@@H](CO)C(=O)N[C@@H](CCCNC(=N)N)C(=O)N1CCC[C@H]1C(=O)N[C@@H](CCCNC(=N)N)C(=O)N[C@@H](CC(C)C)C(=O)N[C@@H](CS)C(=O)N[C@@H](Cc1c[nH]cn1)C(=O)N[C@@H](CCCNC(=N)N)C(=O)O` [γ48-65SlSN2] (H-GACAARCRLSSRPRLCHR-OH), for which the IC50 in [7] was 152 ± 7.7 µM; in the assay with F. oxysporum VKM F-137, 57.1 ± 11.6 µM; in assay [3], 4.2 ± 0.6 µM; in assay [4], 23.1 ± 2.7 µM; in [5], 42.1 ± 6.5 µM; in the assay on F. solani VKM F-142 (Fusarium solani, 38 h incubation, absorbance 595 nm, max tested 150 μM, mean ± SD, three replicates) it was 47.5 ± 2 µM. Further, the “Inhibition of F. culmorum growth” value in assay [5] (peptide 75 μM, 38 h) is given as 79%. Also, in the assay with F. solani VKM F-142 (peptide 150 μM, 38 h), the “Maximum inhibition of F. solani” value is 69%.
